The text below walks through data of patent publication US20160058829A1, “ANTI-FIBROTIC PEPTIDES AND THEIR USE IN METHODS FOR TREATING DISEASES AND DISORDERS CHARACTERIZED BY FIBROSIS” (Thrasos Innovation, Inc., priority 2011, published 2016).

The assay deals with human proximal tubule epithelial cells (HK2). In words: D-glucose-induced EMT assay, E-cadherin immunofluorescence with colorimetric image analysis. Format: cell-based. The following applies: for Percent inhibition of D-glucose-induced EMT: 0% = D-glucose untreated, 100% = media without D-glucose. The method, then:
Chronic hyperglycemia is a known cause of renal fibrosis in type 2 diabetes. The assay in this example induces the transdifferentiation from the epithelial to the mesenchymal phenotype (EMT) in human proximal tubule epithelial cells (HK2) by exposing them to high levels of D-glucose (100 mM and 200 mM). […] Exposure to 100 mM D-glucose results in the loss of E-cadherine expression as evidenced by the loss of the fluorescene signal. Using this assay test compounds are evaluated based on their ability to inhibit the EMT processes in the presence of high levels of D-glucose. FIGS. 4-16 are fluorescence micrographs of HK2 cells exposed to 100 mM D-glucose and 100 uM of SEQ IS NOs 1 through 11, respectively. Note that all but SEQ ID NOs 10 and 11 were able to preserve the epithelial phenotype (i.e., inhibit the EMT).
Results are provided in the context of FIG. 1 and Table 3, below. In Table 3 below, compound response is scored using image analysis as described herein in the method of Methods and Materials, part C. A 0% response corresponds to the signal for 100 mM (or 200 mM) D-glucose (untreated) while the 100% response corresponds to the signal for media in the absence of D-glucose.
It has been shown that transdifferentiation of proximal tubular epithelial cells is a critical step in the development of renal fibrosis, and that this is associated with a loss of the epithelial phenotypic marker, E-cadherin expression. This provides the basis for the development of a cell-based screening assay in which high concentrations of D-Glucose (50-100 mM) are used to induce a loss of E-cadherin expression in human renal proximal tubular epithelial (HK-2) cells, and compounds are tested for their ability to reverse the loss E-cadherin expression.
Materials: • Human proximal tubular epithelial cells, HK-2 (ATCC #CRL-2190) • Serum-free keratinocyte medium (GIBCO #17005-042, K-SFM) • Epidermal growth factor (EGF: 5 ng/mL) • Bovine pituitary extract (BPE: 40 ug/mL) • Primary antibody, Mouse IgG anti-E-cadherin (R&D Systems # MAB1838) • BSA [Sigma #A7030] • secondary antibody, FITC-conjugated Goat anti-mouse IgG (Fab2) fragment (Sigma-Aldrich # F-2653) • Paraformaldehyde (10%)) • Triton X-100 (Sigma # T-9284) • PBS (Fisher Scientific #BP399-1) • D-PBS (Invitrogen #14190-144) • Polypropylene tips (Axygen, Inc. 0.5-10 uL, cat # T-300-L-R; 1-200 uL, Cat # T-200-L-R; 1-1000 uL, Cat # T-1000-C-L-R) • 50 mL polypropylene culture tubes (Fisher Scientific, cat #06-443-18) • 24-well Coster cell culture plates (Fisher Scientific #07-200-84)
Reagents & Test Samples: • Positive control: BMP-7, assayed at concentrations 0.1 and 1 ug/mL • Test compounds (peptides): each tested at final concentrations 100 uM and 200 uM.
Assay Procedure for Cell Culture Assay: • Run assay in 24-well culture plates. • Seed HK-2 cells at a density between 25,000 and 30,000 cells per well in lmL K-SFM medium with supplements added (growth medium) • Incubate HK-2 cells for 24 hours at 37° C., and let cells attach the plate • Next Day afternoon, change the medium with K-SFM medium with no added supplements (serum free medium) in all wells except the first two control wells. • Continue incubating HK-2 cells overnight at 37° C. • Next Day, aspirate the medium from all wells. Incubate the cells in growth medium (first two control wells) or expose them to test compounds for 2 hours at 37° C. Final concentrations of each Test compound are 100 and 200 uM. BMP-7 serves as a positive control in the assay. • After incubation, add D-glucose to all wells except first two control wells. Final concentrations of D-Glucose are 50 and 100 mM. • Incubate HK-2 cells for 60 hours at 37° C. • Aspirate the medium from all wells. To the wells, add pre-warmed growth medium or serum free medium containing D-glucose alone or D-glucose and test compound or D-glucose and BMP-7. Final concentrations of D-Glucose and Test compound are the same as above. • Continue incubating HK-2 cells for 24 hours at 37° C. […]

Positions of bridges follow the written chain, without caps; N, C: chain ends. Non-standard residues stand in square brackets, D forms with d. *: point of attachment. Dap = NC[C@H](N)C(=O)O; For = O=C*

Take “4 (H-CYYDNSSSVLCKRYRS-OH; disulfide 1-11; not fully specified (residue 14)) [compound 4]”: the “Percent inhibition of D-glucose-induced EMT” value (from here on “Percent inhibition”) (100 uM peptide) is on record as 99% and the “Percent inhibition” value (200 uM peptide) is 130%.

On to “5 (H-CYYDNSSSVLCKRYRS-OH; disulfide 1-11; SMILES CC(C)C[C@@H]1NC(=O)[C@H](C(C)C)NC(=O)[C@H](CO)NC(=O)[C@H](CO)NC(=O)[C@H](CO)NC(=O)[C@H](CC(N)=O)NC(=O)[C@H](CC(=O)O)NC(=O)[C@H](Cc2ccc(O)cc2)NC(=O)[C@H](Cc2ccc(O)cc2)NC(=O)[C@@H](N)CSSC[C@@H](C(=O)N[C@@H](CCCCN)C(=O)N[C@@H](CCCNC(=N)N)C(=O)N[C@@H](Cc2ccc(O)cc2)C(=O)N[C@@H](CCCNC(=N)N)C(=O)N[C@@H](CO)C(=O)O)NC1=O) [compound 5]”, for which the “Percent inhibition” value is recorded as 33% (100 uM peptide) and 84% (200 uM peptide).

Consider “9 (H-[Dap]YYDNSSSVLDKRYRS-OH; SMILES CC(C)C[C@H](NC(=O)[C@@H](NC(=O)[C@H](CO)NC(=O)[C@H](CO)NC(=O)[C@H](CO)NC(=O)[C@H](CC(N)=O)NC(=O)[C@H](CC(=O)O)NC(=O)[C@H](Cc1ccc(O)cc1)NC(=O)[C@H](Cc1ccc(O)cc1)NC(=O)[C@@H](N)CN)C(C)C)C(=O)N[C@@H](CC(=O)O)C(=O)N[C@@H](CCCCN)C(=O)N[C@@H](CCCNC(=N)N)C(=O)N[C@@H](Cc1ccc(O)cc1)C(=O)N[C@@H](CCCNC(=N)N)C(=O)N[C@@H](CO)C(=O)O) [compound 9]”, for which the “Percent inhibition” value by setting is: (100 uM peptide) 83%; (200 uM peptide) 125%.

As for “6 (For-CYYDNSSSVLCKRYRS-OH; disulfide 1-11; SMILES CC(C)C[C@@H]1NC(=O)[C@H](C(C)C)NC(=O)[C@H](CO)NC(=O)[C@H](CO)NC(=O)[C@H](CO)NC(=O)[C@H](CC(N)=O)NC(=O)[C@H](CC(=O)O)NC(=O)[C@H](Cc2ccc(O)cc2)NC(=O)[C@H](Cc2ccc(O)cc2)NC(=O)[C@@H](NC=O)CSSC[C@@H](C(=O)N[C@@H](CCCCN)C(=O)N[C@@H](CCCNC(=N)N)C(=O)N[C@@H](Cc2ccc(O)cc2)C(=O)N[C@@H](CCCNC(=N)N)C(=O)N[C@@H](CO)C(=O)O)NC1=O) [compound 6]”, the “Percent inhibition” value reads like this: (100 uM peptide) 88%; (200 uM peptide) 109%.

Turning to “2 (H-DYFDDSSNVL[Dap]KKYRS-OH; SMILES CC(C)C[C@H](NC(=O)[C@@H](NC(=O)[C@H](CC(N)=O)NC(=O)[C@H](CO)NC(=O)[C@H](CO)NC(=O)[C@H](CC(=O)O)NC(=O)[C@H](CC(=O)O)NC(=O)[C@H](Cc1ccccc1)NC(=O)[C@H](Cc1ccc(O)cc1)NC(=O)[C@@H](N)CC(=O)O)C(C)C)C(=O)N[C@@H](CN)C(=O)N[C@@H](CCCCN)C(=O)N[C@@H](CCCCN)C(=O)N[C@@H](Cc1ccc(O)cc1)C(=O)N[C@@H](CCCNC(=N)N)C(=O)N[C@@H](CO)C(=O)O) [compound 2]”, the “Percent inhibition” value (100 uM peptide) is recorded as 167% and the “Percent inhibition” value (200 uM peptide) is 96%.

With “(H)-CYFNDSSQVLCKRYRS-(OH) (H-CYFNDSSQVLCKRYRS-OH; disulfide 1-11; SMILES CC(C)C[C@@H]1NC(=O)[C@H](C(C)C)NC(=O)[C@H](CCC(N)=O)NC(=O)[C@H](CO)NC(=O)[C@H](CO)NC(=O)[C@H](CC(=O)O)NC(=O)[C@H](CC(N)=O)NC(=O)[C@H](Cc2ccccc2)NC(=O)[C@H](Cc2ccc(O)cc2)NC(=O)[C@@H](N)CSSC[C@@H](C(=O)N[C@@H](CCCCN)C(=O)N[C@@H](CCCNC(=N)N)C(=O)N[C@@H](Cc2ccc(O)cc2)C(=O)N[C@@H](CCCNC(=N)N)C(=O)N[C@@H](CO)C(=O)O)NC1=O) [SEQ ID NO: 10]”, the “preservation of the epithelial phenotype (inhibition of EMT), anti-fibrotic effect” value (HK2 cells, high D-glucose) is “very weak anti-fibrotic effect”.

Regarding “3 (H-[Dap]YFDDSSNVLDKKYRS-OH; SMILES CC(C)C[C@H](NC(=O)[C@@H](NC(=O)[C@H](CC(N)=O)NC(=O)[C@H](CO)NC(=O)[C@H](CO)NC(=O)[C@H](CC(=O)O)NC(=O)[C@H](CC(=O)O)NC(=O)[C@H](Cc1ccccc1)NC(=O)[C@H](Cc1ccc(O)cc1)NC(=O)[C@@H](N)CN)C(C)C)C(=O)N[C@@H](CC(=O)O)C(=O)N[C@@H](CCCCN)C(=O)N[C@@H](CCCCN)C(=O)N[C@@H](Cc1ccc(O)cc1)C(=O)N[C@@H](CCCNC(=N)N)C(=O)N[C@@H](CO)C(=O)O) [compound 3]”, the “Percent inhibition” value is recorded as 67% (100 uM peptide) and 128% (200 uM peptide).

For the substance “1 (H-CYFDDSSNVLCKKYRS-OH; disulfide 1-11; SMILES CC(C)C[C@@H]1NC(=O)[C@H](C(C)C)NC(=O)[C@H](CC(N)=O)NC(=O)[C@H](CO)NC(=O)[C@H](CO)NC(=O)[C@H](CC(=O)O)NC(=O)[C@H](CC(=O)O)NC(=O)[C@H](Cc2ccccc2)NC(=O)[C@H](Cc2ccc(O)cc2)NC(=O)[C@@H](N)CSSC[C@@H](C(=O)N[C@@H](CCCCN)C(=O)N[C@@H](CCCCN)C(=O)N[C@@H](Cc2ccc(O)cc2)C(=O)N[C@@H](CCCNC(=N)N)C(=O)N[C@@H](CO)C(=O)O)NC1=O) [compound 1]”, the “Percent inhibition” value reads like this: (100 uM peptide) 125%; (200 uM peptide) 98%.

“11 (H-CYYDDSSSVLCKKYRS-OH; disulfide 1-11; SMILES CC(C)C[C@@H]1NC(=O)[C@H](C(C)C)NC(=O)[C@H](CO)NC(=O)[C@H](CO)NC(=O)[C@H](CO)NC(=O)[C@H](CC(=O)O)NC(=O)[C@H](CC(=O)O)NC(=O)[C@H](Cc2ccc(O)cc2)NC(=O)[C@H](Cc2ccc(O)cc2)NC(=O)[C@@H](N)CSSC[C@@H](C(=O)N[C@@H](CCCCN)C(=O)N[C@@H](CCCCN)C(=O)N[C@@H](Cc2ccc(O)cc2)C(=O)N[C@@H](CCCNC(=N)N)C(=O)N[C@@H](CO)C(=O)O)NC1=O) [compound 11]”: where the note is “200 uM peptide”, the “Percent inhibition” value is listed as −13%.

In the case of “10 (H-CYFNDSSQVLCKRYRS-OH; disulfide 1-11; SMILES CC(C)C[C@@H]1NC(=O)[C@H](C(C)C)NC(=O)[C@H](CCC(N)=O)NC(=O)[C@H](CO)NC(=O)[C@H](CO)NC(=O)[C@H](CC(=O)O)NC(=O)[C@H](CC(N)=O)NC(=O)[C@H](Cc2ccccc2)NC(=O)[C@H](Cc2ccc(O)cc2)NC(=O)[C@@H](N)CSSC[C@@H](C(=O)N[C@@H](CCCCN)C(=O)N[C@@H](CCCNC(=N)N)C(=O)N[C@@H](Cc2ccc(O)cc2)C(=O)N[C@@H](CCCNC(=N)N)C(=O)N[C@@H](CO)C(=O)O)NC1=O) [compound 10]”, the “Percent inhibition” value is, setting by setting: (100 uM peptide) 20%; (200 uM peptide) 17%.

As for “7 (Ac-CYYDNSSSVLCKRYRS-OH; disulfide 1-11; SMILES CC(=O)N[C@H]1CSSC[C@@H](C(=O)N[C@@H](CCCCN)C(=O)N[C@@H](CCCNC(=N)N)C(=O)N[C@@H](Cc2ccc(O)cc2)C(=O)N[C@@H](CCCNC(=N)N)C(=O)N[C@@H](CO)C(=O)O)NC(=O)[C@H](CC(C)C)NC(=O)[C@H](C(C)C)NC(=O)[C@H](CO)NC(=O)[C@H](CO)NC(=O)[C@H](CO)NC(=O)[C@H](CC(N)=O)NC(=O)[C@H](CC(=O)O)NC(=O)[C@H](Cc2ccc(O)cc2)NC(=O)[C@H](Cc2ccc(O)cc2)NC1=O) [compound 7]”, the “Percent inhibition” value (100 uM peptide) stood at 65% and the “Percent inhibition” value (200 uM peptide) was 103%.
